ChEMBL document CHEMBL1157653, “Gentisides A and B, two new neuritogenic compounds from the traditional Chinese medicine Gentiana rigescens Franch” (Bioorg Med Chem, 2010)
Calls of active or inactive are those of the source. No cut-off for these calls is given here.

Tests used:
PC-12 [1] = assay: Induction of neuritogenic activity in rat PC12 cells assessed as long neurite outgrowths at 1 to 30 uM after 48 hrs; type: functional, cell-based
PC-12 [2] = assay: Induction of neuritogenic activity in rat PC12 cells assessed as appearance of long multipolar and bipolar neurite outgrowths at 30 uM after 48 hrs by phase contrast microscopy; type: functional, cell-based
PC-12 [3] = assay: Induction of neuritogenic activity in rat PC12 cells assessed as long neurite outgrowths after 48 hrs; type: functional, cell-based
PC-12 [4] = assay: Potentiation of NGF-induced neuritogenic activity in rat PC12 cells assessed as neurite outgrowths at 1 to 30 uM after 48 hrs; type: functional, cell-based
PC-12 [5] = assay: Induction of neuritogenic activity in rat PC12 cells assessed as long neurite outgrowths at 100 uM after 48 hrs; type: functional, cell-based
PC-12 [6] = assay: Cytotoxicity against rat PC12 cells at 100 uM after 48 hrs; type: cell-based; settings: pc-12, 48 h
PC-12 [7] = assay: Cytotoxicity against rat PC12 cells at 1 to 30 uM after 48 hrs; type: cell-based; settings: pc-12, 48 h
PC-12 [8] = assay: Induction of neuritogenic activity in rat PC12 cells assessed as long neurite outgrowths at 30 uM after 48 hrs; type: functional

Structure (SMILES)	Activity (PC-12 [1])	Activity (PC-12 [2])	Activity (PC-12 [3])	Activity (PC-12 [4])	Activity (PC-12 [5])	Activity (PC-12 [6])	Activity (PC-12 [7])	Activity (PC-12 [8])
O=C(O)c1cccc(O)c1O	inactive							
CC(C)CCCCCCCCCCCCCCCCCCCOC(=O)c1cccc(O)c1O [GENTISIDE A]		Active	Dose-dependent effect	inactive	Active	Toxic	Non-toxic	82%
CC[C@H](C)CCCCCCCCCCCCCCCCCCCOC(=O)c1cccc(O)c1O [GENTISIDE B]		Active	Dose-dependent effect	inactive	Active	Toxic	Non-toxic	87%
